Measurements from the supplement of paper PMC8671470.

What was measured:
Assay in all cases: cell viability (% survival relative to DMSO control); higher = less cytotoxic
Conditions in all cases: 72 h
[1] = system: myeloid leukemia patient primary cells Pat.6
Method in brief: (§1)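 Seventy compounds were pre-printed on 384-well plates at five tenfold concentrations between 1 and 10,000 nM, in duplicate. Thawed mononuclear cells purified by Ficoll from AML or CML patients were added at 10,000 cells/well in RPMI 1640 with 10% FBS for 72 h. Viability by CellTiter-Glo was normalised to DMSO and 10 μM proteasome-inhibitor wells. Where stated, area under the curve was taken from log-logistic fits made with the drc and PharmacoGx R packages, each fit having four parameters.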

[2] = system: myeloid leukemia patient primary cells Pat.4
Method in brief: as §1

[3] = system: myeloid leukemia patient primary cells Pat.12
Method in brief: as §1

[4] = system: myeloid leukemia patient primary cells Pat.13
Method in brief: as §1

Row | SMILES | cell viability ([1]; 1 nM) [%] | cell viability ([1]; 10 nM) [%] | cell viability ([1]; 100 nM) [%] | cell viability ([1]; 1000 nM) [%] | cell viability ([1]; 10000 nM) [%] | cell viability ([2]; 1 nM) [%] | cell viability ([2]; 10 nM) [%] | cell viability ([2]; 100 nM) [%] | cell viability ([2]; 1000 nM) [%] | cell viability ([2]; 10000 nM) [%] | cell viability ([3]; 1 nM) [%] | cell viability ([3]; 10 nM) [%] | cell viability ([3]; 100 nM) [%] | cell viability ([3]; 1000 nM) [%] | cell viability ([3]; 10000 nM) [%] | cell viability ([4]; 1 nM) [%] | cell viability ([4]; 10 nM) [%] | cell viability ([4]; 100 nM) [%] | cell viability ([4]; 1000 nM) [%] | cell viability ([4]; 10000 nM) [%]
1 | Sc1ncnc2nc[nH]c12 [6-mercaptopurine] | 89.3 | > 100 | 99.8 | 88.3 | 97.9 | 79.1 | 80 | 85.9 | 88.2 | 92.3 | > 100 | 95.9 | 93.6 | 97.3 | > 100 | 79.6 | 88.3 | 84.9 | 84.9 | 93.2
2 | Cc1noc2c1-c1ccccc1C(c1ccc(Cl)cc1)=N[C@H]2CC(N)=O [CPI-0610] | > 100 | 87.9 | > 100 | 87.9 | 69.7 | 82.5 | 65.6 | 58.1 | 6.43 | 7.38 | 96.7 | 90.2 | 98.4 | 82.8 | 80.9 | 90.2 | 95.2 | 87.3 | 52.2 | 46.9
3 | Nc1ccn([C@@H]2O[C@H](CO)[C@@H](O)[C@@H]2O)c(=O)n1 [Cytarabine] | > 100 | 78.9 | 89.5 | 86.6 | 36.2 | 87.3 | 88.5 | 75.5 | 75.1 | 5.31 | 96.3 | 94.1 | > 100 | 97.1 | 67.7 | 91.9 | 68.8 | 85.2 | 60.1 | 9.9
4 | CCN(CC)CCN(Cc1ccc(-c2ccc(C(F)(F)F)cc2)cc1)C(=O)Cn1c(SCc2ccc(F)cc2)nc(=O)c2c1CCC2 [Darapladib] | 80.4 | 90 | 72.6 | 79.3 | 0.0489 | 73.2 | 84.2 | 67.9 | 83 | 0.925 | 94.6 | 97.5 | 85.3 | 92.2 | < 0 | 74.1 | 80.5 | 74.2 | 71.2 | < 0
5 | CC12CCC(O)CC1CCC1C2CCC2(C)C(C3=CC(=O)OC3)CCC12O (stereo not given) [Digitoxigenin] | 99.7 | 92.2 | 93.7 | 39.5 | 11.2 | 89.8 | 81.8 | 81.6 | 5.88 | 1.81 | 97.4 | 96 | 94.2 | 58.7 | 16.8 | > 100 | 64.8 | 91.8 | 15 | 4.96
6 | C[C@H]1O[C@@H](O[C@H]2[C@@H](O)C[C@H](O[C@H]3[C@@H](O)C[C@H](O[C@H]4CC[C@@]5(C)[C@H](CC[C@@H]6[C@@H]5C[C@@H](O)[C@]5(C)[C@@H](C7=CC(=O)OC7)CC[C@]65O)C4)O[C@@H]3C)O[C@@H]2C)C[C@H](O)[C@@H]1O [Digoxin] | 98 | 96 | 87 | 25.4 | 6.2 | 93 | 76.1 | 67.4 | 3.24 | 4.37 | 94.2 | 95 | 85.5 | 41.7 | 12.6 | 95.8 | 99 | 88.5 | 5.75 | 3.42
7 | Clc1ccc(COC(Cn2ccnc2)c2ccc(Cl)cc2Cl)cc1 (stereo not given) [Econazole] | 91.4 | 96 | 92.2 | 84.9 | 44.9 | 88 | 94.6 | 81.7 | 88.5 | 74.9 | 89.2 | 94.9 | 95.7 | 96.5 | 90.3 | 77.8 | 95 | 70.2 | 75 | 60.6
8 | C[C@]12O[C@H](C[C@]1(O)CO)n1c3ccccc3c3c4c(c5c6ccccc6n2c5c31)CNC4=O [Lestaurtinib] | 87.2 | 66.8 | 73.2 | 93.9 | 8.53 | 93.5 | 64.5 | 8.79 | 31.2 | 2.37 | > 100 | > 100 | 87 | > 100 | 1.77 | 89 | 46.6 | 48.2 | 57.7 | 1.29
9 | CC(Cc1ccc(O)c(O)c1)C(C)Cc1ccc(O)c(O)c1 (stereo not given) [Masoprocol] | 97.8 | 94.2 | > 100 | 72.2 | 33.9 | 77.7 | 91.8 | > 100 | 81.8 | 19.3 | 91.2 | 96.6 | 98.3 | 89 | 35.1 | 93.2 | 97.5 | 98.5 | 70.5 | 56.2
10 | COc1c(C)c2c(c(O)c1C/C=C(\C)CCC(=O)O)C(=O)OC2 [Mycophenolic acid] | 83.4 | 97.6 | 81.8 | 93.2 | > 100 | 88.4 | 95 | 76.3 | 89.2 | 32.9 | > 100 | > 100 | 85.9 | > 100 | 80.5 | 61 | 90.7 | 73.5 | 68.1 | 63.1
11 | CCOC(=O)N1c2ccc(C(F)(F)F)cc2[C@@H](N(Cc2cc(C(F)(F)F)cc(C(F)(F)F)c2)C(=O)OC)C[C@H]1CC [Torcetrapib] | 89.2 | 80.7 | > 100 | > 100 | 50.4 | 86.9 | 86 | 74.1 | 97 | 56.7 | 93.2 | 82.7 | 94.3 | 89.7 | 79 | > 100 | 71.5 | 92.1 | 81.1 | 48.2
